The values below come from ChEMBL document CHEMBL1129256, “Potent thrombin inhibitors that probe the S1 subsite: tripeptide transition state analogues based on a heterocycle-activated carbonyl group” (J Med Chem, 1996).

One assay concerns the target T1, Serine protease 1 (Bos taurus, UniProt P00760).
T1 sequence (P00760 whole entry): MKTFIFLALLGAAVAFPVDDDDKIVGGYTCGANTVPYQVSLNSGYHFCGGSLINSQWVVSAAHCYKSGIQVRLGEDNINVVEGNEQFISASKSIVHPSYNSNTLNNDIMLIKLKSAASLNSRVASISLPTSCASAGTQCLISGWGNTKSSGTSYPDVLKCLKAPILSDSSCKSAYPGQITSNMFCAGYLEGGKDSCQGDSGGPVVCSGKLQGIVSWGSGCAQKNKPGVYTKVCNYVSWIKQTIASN
Put plainly: Inhibition of bovine trypsin.

For a further assay, the species on record is Bos taurus. The assay is described as follows: Inhibition of trypsin, selectivity with respect to thrombin.
Another assay has as its target Prothrombin (Homo sapiens, UniProt P00734). Put plainly: Inhibition of human alpha-thrombin.
A short description of assay [1]: Compound was tested for inhibition of activated protein C. selectivity with respect to thrombin.
Assay [2] in a line: Compound was tested for inhibition of plasmin, selectivity with respect to thrombin.
Assay [3] in a line: Compound was tested for inhibition of streptokinase (SK). selectivity with respect to thrombin.
A short description of assay [4]: Compound was tested for inhibition of tissue-type plasminogen activator (tissue plasminogen activator), selectivity with respect to thrombin.

For the compound `CN[C@H](Cc1ccccc1)C(=O)N1CCC[C@H]1C(=O)N[C@@H](CCCN=C(N)N)C(=O)C1=NC(=O)C2C=CC=CC2=N1` (some centres undefined), the Ki on Serine protease 1 was determined as 8.2 nM; at Prothrombin, 15 nM. The compound further registered a Selectivity in the assay filed under Bos taurus of 0.6.

Consider `CN[C@H](Cc1ccccc1)C(=O)N1CCC[C@H]1C(=O)N[C@@H](CCCNC(=N)N)C(=O)c1nc2ccccc2n1C`, for which the Ki came to 290 nM on Serine protease 1 and 8.1 nM at Prothrombin. In the assay filed under Bos taurus, this compound showed a Selectivity of 36.

On to `Cc1ccc(S(=O)(=O)NC(=N)NCCC[C@H](NC(=O)[C@@H]2CCCN2C(=O)[C@@H](Cc2ccccc2)N(C)C(=O)OCc2ccccc2)C(O)c2nc3ccccc3s2)cc1` (some centres undefined), for which the Ki was greater than 150000 nM on Serine protease 1 and 5300 nM on Prothrombin.

Consider `CN[C@H](Cc1ccccc1)C(=O)N1CCC[C@H]1C(=O)N[C@@H](CCCNC(=N)N)C(=O)c1nccs1`, for which the results for the Ki on Serine protease 1 and on Prothrombin were 1.6 nM and 3.6 nM, respectively.

Take `CN[C@H](Cc1ccccc1)C(=O)N1CCC[C@H]1C(=O)N[C@@H](CCCN=C(N)N)C(=O)c1nccn1C`: the results for the Ki at Serine protease 1 and on Prothrombin were 4400 nM and 50 nM, respectively.

For `CN[C@H](Cc1ccccc1)C(=O)N1CCC[C@H]1C(=O)N[C@@H](CCCN=C(N)N)C(=O)c1nccs1`, the Selectivity in the assay filed under Bos taurus is 0.4.

For `CN[C@H](Cc1ccccc1)C(=O)N1CCC[C@H]1C(=O)N[C@@H](CCCN=C(N)N)C(=O)c1nc2ccccc2o1`, the values for the Ki at Serine protease 1 and on Prothrombin were 2.9 nM and 3.8 nM, respectively. Also, in the assay filed under Bos taurus, the Selectivity turned out to be 0.8.

Turning to `CN[C@H](Cc1ccccc1)C(=O)N1CCC[C@H]1C(=O)N[C@@H](CCCN=C(N)N)C(=O)c1nc2ccccc2[nH]1`, the Selectivity in the assay listed under Bos taurus came out at 3.2.

For the compound `Cc1ccc(S(=O)(=O)N/C(N)=N\CCC[C@@H](NC(=O)[C@H]2CCCN2C(=O)[C@H](Cc2ccccc2)N(C)C(=O)OCc2ccccc2)C(O)c2nc3ccccc3s2)cc1` (some centres undefined), the Ki is greater than 150000 nM on Serine protease 1 and 16000 nM on Prothrombin.

On to `CN[C@H](Cc1ccccc1)C(=O)N1CCC[C@H]1C(=O)N[C@@H](CCCNC(=N)N)C(=O)c1nc2ccccc2[nH]1`, for which the Ki at Serine protease 1 worked out at 38 nM; on Prothrombin it was 12 nM.

`CN[C@H](Cc1ccccc1)C(=O)N1CCC[C@H]1C(=O)N[C@@H](CCCN=C(N)N)C(=O)c1nc2c(s1)CCCC2` yielded a Selectivity in the assay filed under Bos taurus of 1.3.

On to `CN[C@H](Cc1ccccc1)C(=O)N1CCC[C@H]1C(=O)N[C@@H](CCCNC(=N)N)C(=O)c1nc2c(s1)CCCC2`, for which the Ki on Serine protease 1 is 4.4 nM; at Prothrombin, 3.4 nM.

For the compound `CN[C@H](Cc1ccccc1)C(=O)N1CCC[C@H]1C(=O)N[C@H](C=O)CCCNC(=N)N`, the Selectivity in assay [1] is 72; in assay [2], 33; in assay [3], 170; in assay [4], 130; in the assay filed under Bos taurus, 0.39.

As to `CN[C@H](Cc1ccccc1)C(=O)N1CCC[C@H]1C(=O)N[C@@H](CCCNC(=N)N)C(=O)c1ccccn1`, the Ki at Serine protease 1 worked out at 73 nM; at Prothrombin it was 85 nM. Further, the Selectivity in the assay listed under Bos taurus was 0.8.

As for `CN[C@H](Cc1ccccc1)C(=O)N1CCC[C@H]1C(=O)N[C@@H](CCCN=C(N)N)C(=O)c1nc2ccccc2s1`, the Selectivity was determined as 19000 in assay [1]; 12000 in assay [2]; 6300 in assay [3]; 3300 in assay [4]; 16 in the assay listed under Bos taurus. Moreover, the affinity on Prothrombin, expressed as Ki, was 0.19 nM.

For the compound `CN[C@H](Cc1ccccc1)C(=O)N1CCC[C@H]1C(=O)N[C@@H](CCCNC(=N)N)C(=O)c1nccn1C`, in the assay filed under Bos taurus, the Selectivity came out at 88.
